The values below come from patent publication US7888025B2, “Intestinal folate transporter method” (Albert Einstein College of Medicine of Yeshiva University, priority 2007, dated 2011).

Entries after “also recorded” stand apart in the source; their conditions may differ. Like-named read-outs stand apart in the source and are kept apart here.

What is called Ki is the dissociation constant of the complex between target and ligand, obtained from inhibition or displacement. By inhibition is commonly meant the share of the control response that was lost under treatment.

For data set [1], the target named is rat jejunum brush border membranes. Conditions: cited from earlier work; for Km: read-out: uptake Km.
In data set [2] the target is T1, G21 (PCFT) (Homo sapiens, UniProt Q96NT5).
T1 construct: expressed in transfected cells; host or cells: Xenopus laevis oocytes injected with capped G21 cRNA (pSPT64, SP6)
T1 sequence (Q96NT5 1-459): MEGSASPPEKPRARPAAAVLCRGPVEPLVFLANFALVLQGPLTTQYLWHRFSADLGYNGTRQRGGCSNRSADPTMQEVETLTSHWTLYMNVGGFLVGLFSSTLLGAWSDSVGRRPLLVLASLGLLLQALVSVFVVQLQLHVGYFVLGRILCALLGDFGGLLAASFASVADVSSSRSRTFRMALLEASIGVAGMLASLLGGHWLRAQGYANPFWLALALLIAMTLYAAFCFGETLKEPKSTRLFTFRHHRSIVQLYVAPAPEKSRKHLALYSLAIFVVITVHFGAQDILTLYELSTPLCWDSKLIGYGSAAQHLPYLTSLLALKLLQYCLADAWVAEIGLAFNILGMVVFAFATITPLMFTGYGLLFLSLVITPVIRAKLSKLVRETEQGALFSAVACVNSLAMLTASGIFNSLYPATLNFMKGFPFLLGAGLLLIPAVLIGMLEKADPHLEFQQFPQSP
Put plainly: Two-electrode voltage-clamp electrophysiology in G21 cRNA-injected Xenopus oocytes. Format: cell-based. Here is the method:
(§1) Electrophysiological analyses in Xenopus oocytes. Defolliculated oocytes were injected with 50 nl of water (control) or G21 cRNA (50 ng), and kept at 17° C. in horse serum medium (in mM, 82.5 NaCl, 2.5 KCl, 1 MgCl2, 2.3 CaCl2, 5 HEPES, 5% horse serum, pH 7.5). Electrophysiological recordings were conducted 3-7 days after cRNA injection in buffer (in mM, 90 NaCl, 1 KCl, 1 MgCl2, 1.8 CaCl2, 5 TRIS, 5 MES) as described previously (Jansen and Akabas, 2006). Oocyte holding potential was −80 mV for Km determination. For current-voltage (I-V) relationships, from a −60 mV holding potential step changes in membrane potential were applied for 2 s in 10 mV increments between −100 and 30 mV in the absence and presence of substrate.

For another data set, the target named is T2, HCP1 murine ortholog (Mus musculus, UniProt Q6PEM8, A402V).
T2 construct: host or cells: HeLa cells infected with a cDNA-containing adenovirus vector
T2 sequence (Q6PEM8 1-459 A402V): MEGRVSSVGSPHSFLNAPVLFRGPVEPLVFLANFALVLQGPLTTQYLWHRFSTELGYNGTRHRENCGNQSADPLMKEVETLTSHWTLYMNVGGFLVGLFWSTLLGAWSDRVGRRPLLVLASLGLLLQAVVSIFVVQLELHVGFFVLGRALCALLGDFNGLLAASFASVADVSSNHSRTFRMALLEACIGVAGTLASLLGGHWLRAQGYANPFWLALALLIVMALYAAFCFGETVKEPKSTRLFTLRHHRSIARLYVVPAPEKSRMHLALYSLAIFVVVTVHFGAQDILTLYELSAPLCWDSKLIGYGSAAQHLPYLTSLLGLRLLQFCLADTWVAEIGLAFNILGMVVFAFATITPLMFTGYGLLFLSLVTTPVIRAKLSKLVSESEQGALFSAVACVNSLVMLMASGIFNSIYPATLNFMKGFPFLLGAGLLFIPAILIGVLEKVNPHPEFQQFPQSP
Conditions: HeLa cells, read-out: Km for [55Fe]hemin uptake; cited from earlier work.

In data set [3] the target is T1, G21 (PCFT). Put plainly: Inhibition of [3H]folic acid uptake into G21 cRNA-injected Xenopus oocytes. Conditions: for inhibitory effect on uptake of 2 μM [3H]folic acid: 20 μM nonlabeled compound, pH 5.5, 30 min. Format: cell-based. Here is the method:
Uptake studies in Xenopus oocytes. […] Radiotracer uptake was determined 3 or 4 days later. […] Uptake was halted by the addition of ice-cold MBS (pH 7.5). Oocytes were washed 10 times thereafter, and solubilized with 10% SDS for measurement of radioactivity. To collapse the pH gradient across the oocyte membrane, seven to 10 oocytes were incubated in MBS (pH 5.5) containing 0, 10, 20, 40, 60 μM FCCP for 20 min, and uptake of transport substrates assessed at pH 5.5.

Data set [4] concerns the target T1, G21 (PCFT). Put plainly: Inhibition of [3H]folic acid uptake in HepG2 cells stably transfected with G21 cDNA. In kind it is cell-based. Conditions: 100 μM inhibitor, pH 6.5, HepG2 cells. Here is the method: Transfection. Transfection of plasmid DNA was performed in HepG2, HeLa, and Caco2 cells with Lipofectamine 2000 (Invitrogen). HepG2 cells, stably transfected with either pcDNA3.1(+) or pcDNA3.1(+)G21, were generated by G418 selection (600 μg/ml). Double selection with puromycin (5 μg/ml) and hygromycin (50 μg/ml) was adopted to obtain stably transfected Caco-2 cells with both G21-silencing shRNA vectors, or with both non-silencing negative control plasmids.
Transport of folates in HepG2, HeLa and Caco2 cells. Initial uptake of tritiated folates in HepG2, HeLa, or Caco2 cells was assessed using a protocol designed for rapid uptake determinations in cells growing in monolayer culture in liquid scintillation vials (Sharif and Goldman, 2000) except that cells were incubated at pH 7.4 and 37° C. for 20 min before initiation of uptake. Substrate uptake was normalized to protein content.

In data set [5] the target is T3, low-pH folate transporter (Homo sapiens, UniProt Q96NT5).
T3 construct: host or cells: HeLa and other cells
T3 sequence (Q96NT5 1-459): T1 sequence (Q96NT5 1-459)
Conditions: cited from earlier work.

Data set [6] concerns the target T4, reduced folate carrier (SLC19A1) (Homo sapiens, UniProt P41440).
T4 sequence (P41440 1-591): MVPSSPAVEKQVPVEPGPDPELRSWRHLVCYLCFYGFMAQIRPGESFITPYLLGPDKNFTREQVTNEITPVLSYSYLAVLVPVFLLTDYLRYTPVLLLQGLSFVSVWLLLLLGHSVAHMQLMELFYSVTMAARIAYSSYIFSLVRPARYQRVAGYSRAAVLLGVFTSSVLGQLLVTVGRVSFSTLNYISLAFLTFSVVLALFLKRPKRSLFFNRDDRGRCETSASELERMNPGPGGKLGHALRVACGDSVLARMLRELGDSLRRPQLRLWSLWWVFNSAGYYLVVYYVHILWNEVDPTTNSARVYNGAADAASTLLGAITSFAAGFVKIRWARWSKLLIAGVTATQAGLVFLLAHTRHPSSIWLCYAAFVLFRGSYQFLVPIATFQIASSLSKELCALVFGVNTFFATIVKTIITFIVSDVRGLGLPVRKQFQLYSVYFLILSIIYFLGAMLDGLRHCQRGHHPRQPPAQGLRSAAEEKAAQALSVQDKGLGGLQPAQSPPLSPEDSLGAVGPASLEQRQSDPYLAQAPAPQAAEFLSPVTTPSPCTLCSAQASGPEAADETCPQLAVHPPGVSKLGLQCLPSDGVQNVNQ
Conditions: cited from earlier work.

Data set [7] deals with T1, G21 (PCFT). Briefly: Uptake of tritiated folates in G21 cRNA-injected Xenopus oocytes. Format: cell-based. Here is the method:
(§2) Uptake studies in Xenopus oocytes. Defolliculated Xenopus laevis oocytes were prepared as described (Jansen and Akabas, 2006) and injected with 50 nl of water or G21 cRNA (30 ng). Radiotracer uptake was determined 3 or 4 days later. Seven to 10 oocytes were incubated in 500 μl of Modified Barth's Solution (MBS, in mM, 88 NaCl, 2.4 NaHCO3, 2.5 Na pyruvate, 1 KCl, 0.82 MgSO4, 0.41 CaCl2, 0.3 Ca(NO3)2, 15 MES or HEPES) and uptake of tritiated folate substrates assessed at room temperature. Uptake was halted by the addition of ice-cold MBS (pH 7.5). Oocytes were washed 10 times thereafter, and solubilized with 10% SDS for measurement of radioactivity. To collapse the pH gradient across the oocyte membrane, seven to 10 oocytes were incubated in MBS (pH 5.5) containing 0, 10, 20, 40, 60 μM FCCP for 20 min, and uptake of transport substrates assessed at pH 5.5.

Substrate in data set [8]: Nc1nc2ncc(CNc3ccc(C(=O)N[C@@H](CCC(=O)O)C(=O)O)cc3)nc2c(=O)[nH]1
The description is as above. In kind it is cell-based, human. Here is the method:
as §2

Substrate in data set [9]: CN(Cc1cnc2nc(N)nc(N)c2n1)c1ccc(C(=O)N[C@@H](CCC(=O)O)C(=O)O)cc1
Put plainly: cells, lysate or membranes.

Substrate in data set [10]: Nc1nc2ncc(CNc3ccc(C(=O)N[C@@H](CCC(=O)O)C(=O)O)cc3)nc2c(=O)[nH]1
Briefly: Two-electrode voltage-clamp electrophysiology in G21 cRNA-injected Xenopus oocytes. The settings on record: 17.0 °C. Format: cell-based, human. Here is the method: as §1

[11] abbreviates: pH 5.5, intestinal and other human cells.
Where [12] appears, read: other: extracellular pH 5.5, pH 5.5.
The mark [13] stands for this setting: other: extracellular pH 6.0, pH 6.0.
Where [14] appears, read: other: extracellular pH 6.5, pH 6.5.
Setting [15] is: other: extracellular pH 7.0, pH 7.0.
The mark [16] stands for this setting: other: extracellular pH 7.5, pH 7.5.

Regarding `CN1c2c(nc(N)[nH]c2=O)NCC1CNc1ccc(C(=O)N[C@@H](CCC(=O)O)C(=O)O)cc1` (mixture of isomers) [racemic 5-MTHF], the inhibition constant Ki in data set [1] (read-out: Ki, competitive inhibition of folic acid uptake) was 1400 nM.

As to hemin, at G21 (PCFT) [2] (100 μM hemin, with 0.1% bovine serum albumin or 200 μM arginine), the substrate-induced current entry was “no current could be detected; also recorded: unable to detect”. Besides, the Km at HCP1 murine ortholog is 125 µM. The “inhibitory effect on uptake of 2 μM [3H]folic acid” value against G21 (PCFT) [3] was “weak inhibitor”. Further, the “inhibition of 2 μM [3H]folic acid uptake” value was found to be 42±7% against G21 (PCFT) [3] (100 μM inhibitor, pH 6.5, Xenopus oocytes) and 30±5% on G21 (PCFT) [4].

`Nc1nc(N)c2nc(CNc3ccc(C(=O)N[C@@H](CCCNC(=O)c4ccccc4C(=O)O)C(=O)O)cc3)cnc2n1` [PT523]: the Ki in data set [5] (HeLa and other cells) is > 50000 nM; in [5] (setting [11]), > 50000 nM; in data set [6] it was ~700 nM. The “inhibitory effect on uptake of 2 μM [3H]folic acid” value against G21 (PCFT) [3] was “did not inhibit”.

Consider `Nc1nc2ncc(CNc3ccc(C(=O)N[C@@H](CCC(=O)O)C(=O)O)cc3)nc2c(=O)[nH]1` [folic acid], for which the figures for the Ki in data set [5] (setting [11]) and in data set [6] were ~600 nM and ~200000 nM, respectively. Moreover, the “current amplitude larger than (6S)5-MTHF-induced current” value at G21 (PCFT) [2] (saturating concentrations, same oocyte, pH 5.5) is reported as 39±6%. The “decrease in Vmax” value on G21 (PCFT) [7] (over the pH range of 5.5 to 6.5) turned out to be 2.4 fold. The “uptake Vmax” value is 13 pmol/oocyte/hr at G21 (PCFT) [7] (pH 5.5, same batch of oocytes) and 5 pmol/oocyte/hr at G21 (PCFT) [7] (pH 7.5, same batch of oocytes). Besides, the figures for the “increase in Km” value at G21 (PCFT) [7] (pH increased from 5.5 to 7.0) and on G21 (PCFT) [7] (pH increased from 7.0 to 7.5) were 2.6 fold and 18 fold, respectively. The inhibition at 100 µM came to 92 ± 2% on G21 (PCFT) [3] (read-out: inhibition of 2 μM [3H]folic acid uptake, 100 μM inhibitor, pH 6.5, Xenopus oocytes) and 90 ± 0.02% at G21 (PCFT) [4] (read-out: inhibition of 2 μM [3H]folic acid uptake). Further, the results for the Km in data set [1] (pH 5.5) and in [1] (pH 7.4) were 0.6 µM and 12.3 µM, respectively.

B1: G21 (PCFT) (Homo sapiens) (protein)
chain: T1 sequence (Q96NT5 1-459)
notes: expressed in transfected cells; host or cells: Xenopus laevis oocytes injected with capped G21 cRNA (pSPT64, SP6)
In the case of B1, the Km in [8] (setting [12]) is 1.3 ± 0.1 µM; in data set [8] (setting [13]) it was 1.5 ± 0.1 (n = 2) μM; in [8] (setting [14]), 2.7 ± 0.2 (n = 3) μM; in [8] (setting [15]), 6.0 ± 2.6 (n = 2) μM; in [8] (setting [16]), 56.2 ± 5.6 µM; in data set [9] (setting [12]), 3.4 ± 0.8 (n = 3) μM. Further, the Km in data set [9] (setting [13]) is 3.4 ± 0.5 (n = 3) μM; in data set [9] (setting [14]), 7.3 ± 0.6 (n = 3) μM; in [9] (setting [15]), 16.3 ± 2.8 (n = 4) μM; in [9] (setting [16]), 130.7 ± 11.6 (n = 3) μM; in [9] (other: pH 5.5, holding potential −80 mV, pH 5.5, 17.0 °C), 2.01 ± 0.16 µM; in [9] (other: pH 6.5, holding potential −80 mV, pH 6.5, 17.0 °C), 8.07 ± 0.60 µM. Moreover, the Km in data set [10] (other: pH 5.5, holding potential −80 mV, pH 5.5) was 0.83 ± 0.05 µM; in data set [10] (other: pH 6.5, holding potential −80 mV, pH 6.5), 2.99 ± 0.09 µM.
